Data reported in patent US20240270741A1 (Cogent Biosciences, Inc., priority 2023, published 2024).

Assays:
[1] = target: FGFR2 V564I (Homo sapiens, UniProt P21802, V564I); experiment: FGFR mutant enzyme assay (HTRF KinEASE-TK), FGFR2 V564I; assay type: biochemical; details: Table 4
Source text: (§1) (Catalogue number 62TK0PEC).

[2] = target: FGFR2-WT (Homo sapiens, UniProt P21802); experiment: Phosphorylated FGFR2-WT (pFGFR2-WT) cell assay, KATOIII cells; assay type: cell-based; details: Table 4
FGFR2-WT, sequence (P21802 22-821): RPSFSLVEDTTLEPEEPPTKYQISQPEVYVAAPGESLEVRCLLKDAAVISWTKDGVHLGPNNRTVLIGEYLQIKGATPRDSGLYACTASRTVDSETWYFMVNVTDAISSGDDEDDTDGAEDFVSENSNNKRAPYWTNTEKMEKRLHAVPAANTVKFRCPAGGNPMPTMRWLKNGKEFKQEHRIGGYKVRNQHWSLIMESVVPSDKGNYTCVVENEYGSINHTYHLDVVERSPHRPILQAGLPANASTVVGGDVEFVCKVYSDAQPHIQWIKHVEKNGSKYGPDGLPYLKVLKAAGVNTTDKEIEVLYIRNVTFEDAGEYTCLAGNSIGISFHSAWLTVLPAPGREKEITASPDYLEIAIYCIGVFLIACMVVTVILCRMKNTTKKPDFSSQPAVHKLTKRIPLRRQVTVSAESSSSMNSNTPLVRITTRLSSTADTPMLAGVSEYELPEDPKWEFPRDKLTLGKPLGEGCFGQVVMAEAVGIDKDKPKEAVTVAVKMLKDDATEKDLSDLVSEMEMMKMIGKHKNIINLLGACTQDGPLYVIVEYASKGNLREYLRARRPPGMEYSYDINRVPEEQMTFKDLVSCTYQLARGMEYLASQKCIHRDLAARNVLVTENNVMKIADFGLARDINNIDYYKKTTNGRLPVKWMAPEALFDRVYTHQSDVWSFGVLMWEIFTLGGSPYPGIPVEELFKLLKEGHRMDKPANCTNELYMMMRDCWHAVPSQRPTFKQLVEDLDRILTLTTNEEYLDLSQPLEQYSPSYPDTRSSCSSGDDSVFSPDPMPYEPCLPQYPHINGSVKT
Procedure: Phosphorylated FGFR2-WT (pFGFR2-WT) Cell Assay:
KATOIII cells were grown in the appropriate growth medium, IMDM supplemented with 20% fetal bovine serum. Cells were seeded into a 384-well at 1×10^5 cells/25 μL/well. Cells were treated with compound using three-fold serial dilutions at final concentrations ranging from 10 μM to 0.5 nM. Compound was incubated on cells for 1 hour at 37° C., 5% CO2.
Following the 1-hour incubation with compounds, cell lysates were prepared and phospho FGFR2 was measured using the HTRF Phospho-FGFR2 (TYR653/654) Detection Kits (CisBio, cat #64FGFR2Y6PEG). 8 μL of cell lysis buffer (4×) supplied with 1× Phospho and Total protein blocking reagent (CisBio, cat #64FGFR2Y6PEG, CisBio, cat #64KB1AAC) was then added to the wells. Cells were incubated with lysis buffer for 40 minutes at 4° C. under shaking conditions. Plates were centrifuged at 1500 rpm for 3 min and then 16 μL of cell lysate was transferred from the cell-culture plate to a small volume detection plate with the added premixed antibody solutions (4 μL) (CisBio, cat #64FGFR2Y6PEG). Plates were centrifuged at 1000 rpm for 1 min then incubated at 25° ° C. for 120 min, then overnight at 4° C. Plates were read on the EnVision multimode plate reader via HTRF dual wavelength detection. One hundred percent of control (POC) was determined using DMSO treated samples, and 0 POC was determined using the top concentration of a control compound. A 4-parameter logistic curve was fit to the POC values as a function of compound concentration to determine the IC50 value.

[3] = target: FGFR2 V564F (Homo sapiens, UniProt P21802, V564F); experiment: FGFR mutant enzyme assay (HTRF KinEASE-TK), FGFR2 V564F; assay type: biochemical; details: Table 4
FGFR2 V564F, sequence (P21802 399-821 V564F limits assumed): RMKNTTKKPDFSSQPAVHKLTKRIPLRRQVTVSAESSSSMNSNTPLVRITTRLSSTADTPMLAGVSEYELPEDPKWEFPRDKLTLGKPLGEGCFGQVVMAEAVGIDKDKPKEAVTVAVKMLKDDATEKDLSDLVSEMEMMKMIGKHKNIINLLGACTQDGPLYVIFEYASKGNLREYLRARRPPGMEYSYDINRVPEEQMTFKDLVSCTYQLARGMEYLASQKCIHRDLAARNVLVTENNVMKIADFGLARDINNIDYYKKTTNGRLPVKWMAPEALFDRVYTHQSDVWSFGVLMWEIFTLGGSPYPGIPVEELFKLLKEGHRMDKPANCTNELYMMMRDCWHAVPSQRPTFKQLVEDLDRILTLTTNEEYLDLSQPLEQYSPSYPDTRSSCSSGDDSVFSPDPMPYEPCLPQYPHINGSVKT
Source text: as §1

[4] = target: FGFR2 (Homo sapiens, UniProt P21802); experiment: FGFR wild type enzyme assay (HTRF KinEASE-TK), FGFR2
FGFR2, sequence (P21802 399-821 limits assumed): as the sequence (P21802 399-821 V564F limits assumed) above, with F166V counted along it

[5] = target: FGFR2 N549H (Homo sapiens, UniProt P21802, N549H); experiment: FGFR mutant enzyme assay (HTRF KinEASE-TK), FGFR2 N549H; assay type: biochemical; details: Table 4
FGFR2 N549H, sequence (P21802 399-821 N549H limits assumed): as the sequence (P21802 399-821 V564F limits assumed) above, with N151H, F166V counted along it
Source text: as §1

FGFR2 V564I, sequence (P21802 399-821 V564I limits assumed): as the sequence (P21802 399-821 V564F limits assumed) above, with F166I counted along it

IC50 [1] [nM]	IC50 [2] [nM]	IC50 [3] [nM]	IC50 ([4]; FGFR2 Enz, Table 4) [nM]	IC50 [5] [nM]	IC50 ([4]; Enz FGFR2 (nM)) [nM]	Structure (SMILES)
6	25	3	3	1.5		N#Cc1cnn2cc(-c3cnn([C@H]4CCCNC4)c3)cc(Sc3ccccn3)c12 [Example 1, 6-[1-[(3S)-3-Piperidyl]pyrazol-4-yl]-4-(2-pyridylsulfanyl) pyrazolo[1,5-a]pyridine-3-carbonitrile]
1	28	0.5	0.3	0.2	0.3	CN[C@H]1CC[C@@H](n2ncc(-c3cc(Sc4ccccc4C#N)c4c(C#N)cnn4c3)c2C)CC1 [Example 117, -[(5-fluoro-2-methyl-4-pyridyl)sulfany1]-6-[5-methyl-1-(4-piperidyl)pyrazol-4-yl]pyrazolo[1,5-a]pyridine-3-carbonitrile]
12	41	9	0.12	4	5	Cc1nc(Sc2cc(-c3cnn(C4CCN(C)CC4)c3C)cn3ncc(C#N)c23)ccc1F [Example 128]
5	117	4	1	3	2	Cc1c(-c2cc(Sc3cccc(F)c3C#N)c3c(C#N)cnn3c2)cnn1C1CCNCC1 [Example 130, 4-(2-cyano-3-fluoro-phenyl)sulfanyl-6-[5-methyl-1-(4-piperidyl)pyrazol-4-yl]pyrazolo[1,5-a]pyridine-3-carbonitrile]
